The source of these data is patent publication US6503307B1, “Ink set, printing method, ink, printed article, printing apparatus, ink cartridge, recording unit, and process of forming polymeric compound films” (Canon Kabushiki Kaisha, priority 1999, dated 2003).

A short description of one series: Solubility in water. Type of series: physicochemical. The settings on record: highest concentration forming a uniform transparent aqueous solution. The text has this: In Table 1, the water solubility is shown by the highest concentration of the compound for forming a uniform transparent aqueous solution.
A short description of series [1]: Reactivity: time for gel formation on mixing 50% solutions. It is filed as physicochemical. Particulars: 50% solution of Group B compound with aqueous 50% solution of Compound A-1.

Take `SCC(S)CS` [Compound B-8]: the Solubility in the series “Solubility in water” is on record as >30%. Further, the “Time for gel formation” value in series [1] was 600 s.
For the compound `NC1C(O)OC(CO)C(O)C1O` (stereo not drawn) [Compound B-4], the Solubility in “Solubility in water” turned out to be 20%. Further, in series [1], the “Time for gel formation” value was 600 s.
For `CCC(CS)(CS)CS` [Compound B-10], in that order: >30% and 600 s.
